Data from patent publication US20240002397A1, “3-AMINO PYRROLIDINE AND PIPERIDINE MACROCYCLIC OREXIN RECEPTOR AGONISTS” (Merck Sharp & Dohme LLC, priority 2020, published 2024).

target: T1, human OX2R (Homo sapiens, UniProt O43614); assay: IPOne (IP-1) orexin receptor agonist assay in CHO cells expressing human OX2R; conditions: CHO, hOX2R IP-One; percentage of mean max effect of a reference compound at 1 uM with 100% activity
T1 sequence (O43614 1-444): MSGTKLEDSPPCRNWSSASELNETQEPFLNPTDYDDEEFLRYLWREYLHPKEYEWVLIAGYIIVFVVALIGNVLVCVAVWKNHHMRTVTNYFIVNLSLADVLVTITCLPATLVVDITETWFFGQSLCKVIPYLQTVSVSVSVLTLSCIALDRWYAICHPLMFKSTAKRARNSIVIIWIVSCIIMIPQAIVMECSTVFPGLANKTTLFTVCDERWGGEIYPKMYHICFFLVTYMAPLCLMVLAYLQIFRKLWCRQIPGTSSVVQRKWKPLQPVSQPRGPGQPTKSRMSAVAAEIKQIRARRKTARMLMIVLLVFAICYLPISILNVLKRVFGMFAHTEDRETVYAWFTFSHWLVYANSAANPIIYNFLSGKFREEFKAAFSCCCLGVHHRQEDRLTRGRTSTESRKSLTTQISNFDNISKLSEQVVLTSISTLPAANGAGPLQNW

Row | Compound | Emax [%]
1 | CN(C)S(=O)(=O)N[C@@H]1CCCN2C(=O)OCCCCOc3cccc(c3)C3CCC(CC3)OC[C@H]12 [Example 27, N′-((2^1R,2^4R,5^2S,5^3R)-6-oxo-3,7,12-trioxa-5(2,1)-piperidina-1(1,3)-benzena-2(1,4)-cyclohexanacyclododecaphane-5^3-yl)-N,N-dimethyl-sulfamide] | 4.1
2 | C[C@@H]1C[C@H](NS(C)(=O)=O)C2COC3CCC(CC3)c3ccc(C(F)(F)F)c(n3)OCCCOC(=O)N21 (stereo partly drawn) [Example 65, N-((2^1S,2^4S,5^2R,5^3S,5^5R)-5^5-methyl-6-oxo-1^5-(trifluoromethyl)-3,7,11-trioxa-1(2,6)-pyridina-5(2,1)-pyrrolidina-2(1,4)-cyclohexanacycloundecaphane-5^3-yl)methanesulfonamide] | 103
3 | C[C@@H]1C[C@H](NS(C)(=O)=O)C2COC3CCC(CC3)c3cccc(n3)N(C)CCCOC(=O)N21 (stereo partly drawn) [Example 91, N-((2^1S,2^4S,5^2R, 5^3S,5^5R)-5^5,^11-dimethyl-6-oxo-3,7-dioxa-11-aza-1(2,6)-pyridina-5(2,1)-pyrrolidina-2(1,4)-cyclohexanacycloundecaphane-5^3-yl)methanesulfonamide] | 102
4 | C[C@@H]1C[C@H](NS(=O)(=O)N(C)C)[C@@H]2COC3CCC(CC3)c3cccc(c3)CCCCOC(=O)N12 [Example 22, N′-((2^1S,2^4S,5^2R,5^3S,5^5R)-5^5-methyl-6-oxo-3,7-dioxa-5(2,1)-pyrrolidina-1(1,3)-benzena-2(1,4)-cyclohexanacycloundecaphane-5^3-yl)-N,N-dimethysulfamide] | 102
5 | C[C@@H]1C[C@H](NS(C)(=O)=O)C2COC3CCC(CC3)c3nc(c(F)cc3F)OCCCOC(=O)N21 (stereo partly drawn) [Example 81, N-((2^1S,2^4S,5^2R,5^3S,5^5R)-1^3,1^5-difluoro-5^5-methyl-6-oxo-3,7,11-trioxa-1(2,6)-pyridina-5(2,1)-pyrrolidina-2(1,4)-cyclohexanacycloundecaphane-5^3-yl)methanesulfonamide] | 104

The remaining lines, values ahead:

Row | Emax [%] | Compound
6 | 104 | COc1cc2nc(c1)C1CCC(CC1)OCC1[C@@H](NS(=O)(=O)C(F)F)C[C@@H](C)N1C(=O)OCCCO2 (stereo partly drawn) [Example 108, 1,1-difluoro-N-((2^1R,2^4R,5^2R,5^3S,5^5R)-14-methoxy-5^5-methyl-6-oxo-3,7,11-trioxa-1(2,6)-pyridina-5(2,1)-pyrrolidina-2(1,4)-cyclohexanacycloundecaphane-5^3-yl)methanesulfonamide]
7 | 101 | C[C@@H]1C[C@H](NS(C)(=O)=O)C2COC3CCC(CC3)c3cc(C(F)(F)F)cc(n3)N(C)CCCOC(=O)N21 (stereo partly drawn) [Example 89, N-((2^1S,2^4S,5^2R,5^3S,5^5R)-5^5,1^1-dimethyl-6-oxo-1^4-(trifluoromethyl)-3,7-dioxa-11-aza-1(2,6)-pyridina-5(2,1)-pyrrolidina-2(1,4)-cyclohexanacycloundecaphane-5^3-yl)methanesulfonamide]
8 | 101 | C[C@@H]1C[C@H](NS(=O)(=O)N(C)C)[C@@H]2CO[C@H]3CC[C@H](CC3)c3cccc(c3)CCCCCC(=O)N12 [Example 12, N′-((2^1S,2^4S,5^2R,5^3S,5^5R)-5^5-methyl-6-oxo-3-oxa-5(2,1)-pyrrolidina-1(1,3)-benzena-2(1,4)cyclohexanacycloundecaphane-5^3-yl)-N,N-dimethyl-sulfamide]

same assay, conditions: hOX2R IP-One; percentage of mean max effect of a reference compound at 1 uM with 100% activity

Row | Emax (%) | Compound
9 | −3.9 | CS(=O)(=O)NC1CCCN2C(=O)CCCOc3cccc(c3)C3CCC(C3)OCC12 (stereo not drawn) [Example 33, N-((2^1S,2^3R,5^2R,5^3S)-6-oxo-3,10-dioxa-5(2,1)-piperidina-1(1,3)-benzena-2(1,3)-cyclopentanacyclodecaphane-5^3-yl)methanesulfonamide]
